Format in all cases: in vivo
Experiment [1] concerns Echinochloa oryzicola Vasing. (Eo). The experiment can be described thus: Test for herbicidal effect by paddy field soil treatment (Test Example 1). To be noted: application amount (active ingredient) 100 g/10 a, examined at the 21st day from the treatment, index per Table 40. How it is done: <Test Example 1> Test For Herbicidal Effect By Paddy Field Soil Treatment A paddy field soil was filled in a plastic pot of 100 cm^2 and subjected to puddling. Then, seeds of Echinochloa oryzicola Vasing. (Eo) were sowed and water was filled in a depth of 3 cm. Next day, wettable powders produced in accordance with the Formulation 1 were diluted with water and dropped on the water surface. The application amount of each wettable powder was 100 g per 10 ares in terms of the active ingredient. Then, breeding was made in a greenhouse, and the herbicidal effect of each wettable powder was examined at the 21st day from the treatment in accordance with the standard shown in Table 40. [table]

Experiment [2] deals with Echinochloa crus-galli (L.) Beauv. var. crusgall (Ec). Kind of experiment: Test for herbicidal effect by upland field soil treatment (Test Example 2), Ec. How it is done:
(§1) [table] <Test Example 2> Test For Herbicidal Effect By Upland Field Soil Treatment An upland field soil was filed in a plastic pot of 80 cm^2. Seeds of Echinochloa crus-galli (L.) Beauv. var. crusgall (Ec) and Setaria viridis (L.) Beauv. (Se) were sowed, followed by covering with the same soil. Wettable powders produced in accordance with the Formulation 1 were diluted with water and sprayed uniformly: on the soil surface using a small sprayer, in an amount of 100 liters per 10 ares so that the amount of each active ingredient became 100 g per 10 ares. Then, breeding was made in a greenhouse, and the herbicidal effect of each wettable powder was examined at the 21st day from the treatment in accordance with the standard shown in Table 40.

Experiment [3] concerns Setaria viridis (L.) Beauv. (Se). Kind of experiment: Test for herbicidal effect by upland field soil treatment (Test Example 2), Se. How it is done:
as §1

Setting [4] is: application amount (active ingredient) 100 g/10 a, examined at the 21st day from the treatment, index per Table 40.
Where [5] appears, read: 100 g/10 a active ingredient, examined at 21st day.

As to `CC1(C)CC(S(=O)(=O)Cc2cccc(F)c2)=NO1` [Compound 1-33], the “Herbicidal effect to Eo” value in experiment [1] is reported as 5 (A herbicidal effect or phytotoxicity of 90% or more). The “Herbicidal effect to Ec” value in experiment [2] (setting [4]) was 5 (A herbicidal effect or phytotoxicity of 90% or more). In experiment [3] (setting [4]), the “Herbicidal effect to Se” value is given as 5 (A herbicidal effect or phytotoxicity of 90% or more).

On to `CC1(C)CC(S(=O)(=O)Cc2ccc(F)cc2)=NO1` [Compound 1-34], for which the “Herbicidal effect to Eo” value in experiment [1] is given as 5 (A herbicidal effect or phytotoxicity of 90% or more). Moreover, in experiment [2] (setting [4]), the “Herbicidal effect to Ec” value is on record as 5 (A herbicidal effect or phytotoxicity of 90% or more). The “Herbicidal effect to Se” value in experiment [3] (setting [4]) is 5 (A herbicidal effect or phytotoxicity of 90% or more).

Turning to `COc1cccc(CS(=O)(=O)C2=NOC(C)(C)C2)c1` [Compound 1-41], in experiment [1], the “Herbicidal effect to Eo” value is listed as 5 (A herbicidal effect or phytotoxicity of 90% or more). In addition, the “Herbicidal effect to Ec” value in experiment [2] (setting [4]) was 5 (A herbicidal effect or phytotoxicity of 90% or more). The “Herbicidal effect to Se” value in experiment [3] (setting [4]) is 5 (A herbicidal effect or phytotoxicity of 90% or more).

`COc1ccc(CS(=O)(=O)C2=NOC(C)(C)C2)cc1` [Compound 1-42]: in experiment [1], the “Herbicidal effect to Eo” value is 5 (A herbicidal effect or phytotoxicity of 90% or more). In addition, the “Herbicidal effect to Ec” value in experiment [2] (setting [4]) is 5 (A herbicidal effect or phytotoxicity of 90% or more). Also, the “Herbicidal effect to Se” value in experiment [3] (setting [4]) is listed as 4 (A herbicidal effect or phytotoxicity of 70% to less than 90%).

With `CCC1(C)CC(S(=O)(=O)Cc2ccccc2F)=NO1` (centres unmarked) [Compound 1-189], in experiment [1], the “Herbicidal effect to Eo” value is given as 5 (A herbicidal effect or phytotoxicity of 90% or more). The “Herbicidal effect to Ec” value in experiment [2] (setting [4]) is on record as 5 (A herbicidal effect or phytotoxicity of 90% or more). Besides, the “Herbicidal effect to Se” value in experiment [3] (setting [4]) is 5 (A herbicidal effect or phytotoxicity of 90% or more).

In the case of `CCC1(C)CC(S(=O)(=O)Cc2ccc(F)cc2)=NO1` (centres unmarked) [Compound 1-191], in experiment [1], the “Herbicidal effect to Eo” value was 5 (A herbicidal effect or phytotoxicity of 90% or more). The “Herbicidal effect to Ec” value in experiment [2] (setting [4]) was 5 (A herbicidal effect or phytotoxicity of 90% or more). Further, the “Herbicidal effect to Se” value in experiment [3] (setting [4]) is 5 (A herbicidal effect or phytotoxicity of 90% or more).

With `CCC1(C)CC(S(=O)(=O)Cc2ccc(Cl)cc2)=NO1` (centres unmarked) [Compound 1-194], the “Herbicidal effect to Eo” value in experiment [1] is recorded as 5 (A herbicidal effect or phytotoxicity of 90% or more). In addition, the “Herbicidal effect to Ec” value in experiment [2] (setting [4]) was 5 (A herbicidal effect or phytotoxicity of 90% or more). Moreover, the “Herbicidal effect to Se” value in experiment [3] (setting [4]) is on record as 5 (A herbicidal effect or phytotoxicity of 90% or more).

Regarding `CCC1(C)CC(S(=O)(=O)Cc2ccccc2Br)=NO1` (centres unmarked) [Compound 1-195], the “Herbicidal effect to Eo” value in experiment [1] is recorded as 5 (A herbicidal effect or phytotoxicity of 90% or more). Further, in experiment [2] (setting [4]), the “Herbicidal effect to Ec” value was 5 (A herbicidal effect or phytotoxicity of 90% or more). Also, the “Herbicidal effect to Se” value in experiment [3] (setting [4]) is 5 (A herbicidal effect or phytotoxicity of 90% or more).

On to `CCC1(C)CC(S(=O)(=O)Cc2ccc(C#N)cc2)=NO1` (centres unmarked) [Compound 1-329], for which, in experiment [1], the “Herbicidal effect to Eo” value is reported as 5 (A herbicidal effect or phytotoxicity of 90% or more). In addition, the “Herbicidal effect to Ec” value in experiment [2] (setting [4]) is 5 (A herbicidal effect or phytotoxicity of 90% or more). Moreover, the “Herbicidal effect to Se” value in experiment [3] (setting [4]) is recorded as 5 (A herbicidal effect or phytotoxicity of 90% or more).

In the case of `Fc1cccc(F)c1CSC1=NOC2(CCC2)C1` [Compound 1-381], the “Herbicidal effect to Eo” value in experiment [1] is listed as 5 (A herbicidal effect or phytotoxicity of 90% or more). Moreover, the “Herbicidal effect to Ec” value in experiment [2] (setting [4]) is recorded as 4 (A herbicidal effect or phytotoxicity of 70% to less than 90%). Besides, the “Herbicidal effect to Se” value in experiment [3] (setting [4]) is 4 (A herbicidal effect or phytotoxicity of 70% to less than 90%).

In the case of `O=S(=O)(Cc1c(F)cccc1F)C1=NOC2CCCCC12` (centres unmarked) [Compound 1-387], the “Herbicidal effect to Eo” value in experiment [1] is reported as 5 (A herbicidal effect or phytotoxicity of 90% or more). For the same compound, in experiment [2] (setting [4]), the “Herbicidal effect to Ec” value is on record as 5 (A herbicidal effect or phytotoxicity of 90% or more). Moreover, in experiment [3] (setting [4]), the “Herbicidal effect to Se” value is listed as 4 (A herbicidal effect or phytotoxicity of 70% to less than 90%).

Regarding `O=S(=O)(Cc1c(F)cccc1F)C1=NOC2CCCCCC12` (centres unmarked) [Compound 1-388], in experiment [1], the “Herbicidal effect to Eo” value is reported as 5 (A herbicidal effect or phytotoxicity of 90% or more). For the same compound, in experiment [2] (setting [4]), the “Herbicidal effect to Ec” value is given as 5 (A herbicidal effect or phytotoxicity of 90% or more). Also, in experiment [3] (setting [4]), the “Herbicidal effect to Se” value is 5 (A herbicidal effect or phytotoxicity of 90% or more).

Take `COCC1(C)CC([S+]([O-])Cc2c(F)cccc2F)=NO1` (centres unmarked) [Compound 1-396]: in experiment [1], the “Herbicidal effect to Eo” value was 5 (A herbicidal effect or phytotoxicity of 90% or more). Further, the “Herbicidal effect to Ec” value in experiment [2] (setting [4]) is 4 (A herbicidal effect or phytotoxicity of 70% to less than 90%). For the same compound, in experiment [3] (setting [4]), the “Herbicidal effect to Se” value is 5 (A herbicidal effect or phytotoxicity of 90% or more).

Consider `CC12CCCCC1C(S(=O)(=O)Cc1c(F)cccc1F)=NO2` (centres unmarked) [Compound 1-493], for which, in experiment [1], the “Herbicidal effect to Eo” value is 5 (A herbicidal effect or phytotoxicity of 90% or more). In addition, in experiment [2] (setting [4]), the “Herbicidal effect to Ec” value is recorded as 5 (A herbicidal effect or phytotoxicity of 90% or more). In addition, the “Herbicidal effect to Se” value in experiment [3] (setting [4]) was 4 (A herbicidal effect or phytotoxicity of 70% to less than 90%).

In the case of `O=S(=O)(Cc1c(F)cccc1F)C1=NOCC1` [Compound 1-533], in experiment [1], the “Herbicidal effect to Eo” value is listed as 5 (A herbicidal effect or phytotoxicity of 90% or more).

Turning to `CC1(C)CC(S(=O)(=O)Cc2cc([N+](=O)[O-])cc([N+](=O)[O-])c2)=NO1` [Compound 1-546], in experiment [1], the “Herbicidal effect to Eo” value is listed as 5 (A herbicidal effect or phytotoxicity of 90% or more). The “Herbicidal effect to Ec” value in experiment [2] (setting [5]) is 5 (A herbicidal effect or phytotoxicity of 90% or more). The “Herbicidal effect to Se” value in experiment [3] (setting [5]) is 4 (A herbicidal effect or phytotoxicity of 70% to less than 90%).

`CC1(C)CC(S(=O)(=O)Cc2ccc(F)cc2C(F)(F)F)=NO1` [Compound 1-551]: the “Herbicidal effect to Eo” value in experiment [1] is 5 (A herbicidal effect or phytotoxicity of 90% or more). In experiment [2] (setting [5]), the “Herbicidal effect to Ec” value is reported as 5 (A herbicidal effect or phytotoxicity of 90% or more). For the same compound, the “Herbicidal effect to Se” value in experiment [3] (setting [5]) is given as 5 (A herbicidal effect or phytotoxicity of 90% or more).

In the case of `CC(c1ccccc1C(F)(F)F)S(=O)(=O)C1=NOC(C)(C)C1` (centres unmarked) [Compound 1-575], the “Herbicidal effect to Eo” value in experiment [1] is 5 (A herbicidal effect or phytotoxicity of 90% or more).

With `C#CCOC(=O)c1ccccc1CS(=O)(=O)C1=NOC(C)(C)C1` [Compound 1-600], the “Herbicidal effect to Eo” value in experiment [1] is recorded as 5 (A herbicidal effect or phytotoxicity of 90% or more). For the same compound, the “Herbicidal effect to Ec” value in experiment [2] (setting [5]) is on record as 5 (A herbicidal effect or phytotoxicity of 90% or more).

Take `CCC1(C)CC(S(=O)(=O)Cc2c(C)ccc(C)c2C)=NO1` (centres unmarked) [Compound 1-617]: in experiment [1], the “Herbicidal effect to Eo” value is given as 5 (A herbicidal effect or phytotoxicity of 90% or more). Besides, the “Herbicidal effect to Ec” value in experiment [2] (setting [5]) is 5 (A herbicidal effect or phytotoxicity of 90% or more). Besides, the “Herbicidal effect to Se” value in experiment [3] (setting [5]) is given as 5 (A herbicidal effect or phytotoxicity of 90% or more).

Take `COC(=O)c1cccc(Cl)c1CS(=O)(=O)C1=NOC(C)(C)C1` [Compound 1-618]: the “Herbicidal effect to Eo” value in experiment [1] is given as 5 (A herbicidal effect or phytotoxicity of 90% or more). In addition, the “Herbicidal effect to Ec” value in experiment [2] (setting [5]) is on record as 5 (A herbicidal effect or phytotoxicity of 90% or more). Moreover, in experiment [3] (setting [5]), the “Herbicidal effect to Se” value was 5 (A herbicidal effect or phytotoxicity of 90% or more).

For `CS(=O)(=O)C1=NOC2(CC2)C1` [Compound 2-28], in experiment [1], the “Herbicidal effect to Eo” value was 5 (A herbicidal effect or phytotoxicity of 90% or more).

The values are drawn from patent publication US6841519B1, “Isoxazoline derivatives and herbicides containing the same as the active ingredient” (Kumiai Chemical Industry Co., Ltd., priority 1999, dated 2005).
